Results on six cell lines are retold here after the supplement of paper PMC10307832.

What all share (experiment): relative viability (nuclei count vs DMSO), 5 days (fraction); higher = more cells survive
Compound in the assay “Gemcitabine + OSI-027”: Nc1ccn([C@@H]2O[C@H](CO)[C@@H](O)C2(F)F)c(=O)n1 [Gemcitabine] + COc1cccc2cc(-c3nc([C@H]4CC[C@H](C(=O)O)CC4)n4ncnc(N)c34)[nH]c12 [OSI-027] (partner 0.5 µM)
The gist of the method:
(§1)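 Values are medians from duplicate plates. Each reflects relative viability, defined as the nuclei count of treated wells over that of vehicle wells. Lung cancer cell lines in 1536-well plates were pin-tool dosed one day after seeding with one drug alone or with a fixed anchor-drug dose plus five library-drug doses (not always all listed) in √10 steps, then fixed, stained and imaged at 4× after 5 days.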

Compound in the assay “Gemcitabine + Crizotinib”: Nc1ccn([C@@H]2O[C@H](CO)[C@@H](O)C2(F)F)c(=O)n1 [Gemcitabine] + C[C@@H](Oc1cc(-c2cnn(C3CCNCC3)c2)cnc1N)c1c(Cl)ccc(F)c1Cl [Crizotinib] (partner 1 µM)
The procedure, abridged: as §1

Compound in the assay “Gemcitabine + Linsitinib”: Nc1ccn([C@@H]2O[C@H](CO)[C@@H](O)C2(F)F)c(=O)n1 [Gemcitabine] + C[C@]1(O)C[C@@H](c2nc(-c3ccc4ccc(-c5ccccc5)nc4c3)c3c(N)nccn32)C1 [Linsitinib] (partner 1 µM)
The procedure, abridged:
as §1

Compound in the assay “Gemcitabine + Tozasertib”: Nc1ccn([C@@H]2O[C@H](CO)[C@@H](O)C2(F)F)c(=O)n1 [Gemcitabine] + Cc1cc(Nc2cc(N3CCN(C)CC3)nc(Sc3ccc(NC(=O)C4CC4)cc3)n2)n[nH]1 [Tozasertib] (partner 0.1 µM)
The gist of the method:
as §1

As for HCC-15, the relative viability with Gemcitabine + OSI-027 (first compound 0.001 µM) was found to be 0.773; with Gemcitabine + OSI-027 (first compound 0.003162 µM), 0.624; with Gemcitabine + OSI-027 (first compound 0.01 µM) it was 0.578; in the assay with Gemcitabine + OSI-027 (first compound 0.03162 µM) it was 0.142; with Gemcitabine + OSI-027 (first compound 0.1 µM), 0.0829; with Gemcitabine + Crizotinib (first compound 0.001 µM), 0.929. In addition, the relative viability in the assay with Gemcitabine + Crizotinib (first compound 0.003162 µM) came to 0.819; in the assay with Gemcitabine + Crizotinib (first compound 0.01 µM), 0.79; with Gemcitabine + Crizotinib (first compound 0.03162 µM), 0.192; with Gemcitabine + Crizotinib (first compound 0.1 µM), 0.0758; with Gemcitabine + Linsitinib (first compound 0.001 µM), 0.981; in the assay with Gemcitabine + Linsitinib (first compound 0.003162 µM), 0.893. Further, the relative viability came out at 0.848 with Gemcitabine + Linsitinib (first compound 0.01 µM); 0.217 in the assay with Gemcitabine + Linsitinib (first compound 0.03162 µM); 0.0888 with Gemcitabine + Linsitinib (first compound 0.1 µM); 0.51 with Gemcitabine + Tozasertib (first compound 0.001 µM); 0.436 in the assay with Gemcitabine + Tozasertib (first compound 0.003162 µM); 0.39 with Gemcitabine + Tozasertib (first compound 0.01 µM). Further, the relative viability is 0.247 in the assay with Gemcitabine + Tozasertib (first compound 0.03162 µM) and 0.0632 with Gemcitabine + Tozasertib (first compound 0.1 µM).

PC-3 [JPC-3]: the relative viability turned out to be 0.799 in the assay with Gemcitabine + OSI-027 (first compound 0.001 µM); 0.656 with Gemcitabine + OSI-027 (first compound 0.003162 µM); 0.378 in the assay with Gemcitabine + OSI-027 (first compound 0.01 µM); 0.259 in the assay with Gemcitabine + OSI-027 (first compound 0.03162 µM); 0.257 with Gemcitabine + OSI-027 (first compound 0.1 µM); 1 in the assay with Gemcitabine + Crizotinib (first compound 0.001 µM). Further, the relative viability with Gemcitabine + Crizotinib (first compound 0.003162 µM) worked out at 0.838; with Gemcitabine + Crizotinib (first compound 0.01 µM), 0.611; in the assay with Gemcitabine + Crizotinib (first compound 0.03162 µM) it was 0.295; with Gemcitabine + Crizotinib (first compound 0.1 µM), 0.246; in the assay with Gemcitabine + Linsitinib (first compound 0.001 µM), 1.03; in the assay with Gemcitabine + Linsitinib (first compound 0.003162 µM), 0.77. Also, the relative viability in the assay with Gemcitabine + Linsitinib (first compound 0.01 µM) was determined as 0.692; with Gemcitabine + Linsitinib (first compound 0.03162 µM), 0.342; in the assay with Gemcitabine + Linsitinib (first compound 0.1 µM), 0.309; with Gemcitabine + Tozasertib (first compound 0.001 µM), 0.902; in the assay with Gemcitabine + Tozasertib (first compound 0.003162 µM), 0.796; with Gemcitabine + Tozasertib (first compound 0.01 µM) it was 0.666. Further, the relative viability was 0.264 with Gemcitabine + Tozasertib (first compound 0.03162 µM) and 0.237 in the assay with Gemcitabine + Tozasertib (first compound 0.1 µM).

With NCI-H1993, the relative viability in the assay with Gemcitabine + OSI-027 (first compound 0.001 µM) stood at 0.539; with Gemcitabine + OSI-027 (first compound 0.003162 µM), 0.534; in the assay with Gemcitabine + OSI-027 (first compound 0.01 µM), 0.541; with Gemcitabine + OSI-027 (first compound 0.03162 µM), 0.503; with Gemcitabine + OSI-027 (first compound 0.1 µM), 0.518; with Gemcitabine + Crizotinib (first compound 0.001 µM) it was 0.89. Further, the relative viability with Gemcitabine + Crizotinib (first compound 0.003162 µM) is 0.891; in the assay with Gemcitabine + Crizotinib (first compound 0.01 µM) it was 0.668; with Gemcitabine + Crizotinib (first compound 0.03162 µM), 0.549; with Gemcitabine + Crizotinib (first compound 0.1 µM), 0.461; in the assay with Gemcitabine + Linsitinib (first compound 0.001 µM), 0.689; in the assay with Gemcitabine + Linsitinib (first compound 0.003162 µM), 0.723. The relative viability with Gemcitabine + Linsitinib (first compound 0.01 µM) was found to be 0.622; with Gemcitabine + Linsitinib (first compound 0.03162 µM), 0.599; in the assay with Gemcitabine + Linsitinib (first compound 0.1 µM) it was 0.579; with Gemcitabine + Tozasertib (first compound 0.001 µM) it was 0.54; with Gemcitabine + Tozasertib (first compound 0.003162 µM), 0.633; with Gemcitabine + Tozasertib (first compound 0.01 µM), 0.619. Moreover, the relative viability amounted to 0.494 with Gemcitabine + Tozasertib (first compound 0.03162 µM) and 0.531 in the assay with Gemcitabine + Tozasertib (first compound 0.1 µM).

Consider NCI-H358, for which the relative viability with Gemcitabine + OSI-027 (first compound 0.001 µM) was found to be 0.523; with Gemcitabine + OSI-027 (first compound 0.003162 µM), 0.114; with Gemcitabine + OSI-027 (first compound 0.01 µM), 0.0702; with Gemcitabine + OSI-027 (first compound 0.03162 µM), 0.0815; with Gemcitabine + OSI-027 (first compound 0.1 µM), 0.0642; with Gemcitabine + Crizotinib (first compound 0.001 µM), 0.494. Besides, the relative viability with Gemcitabine + Crizotinib (first compound 0.003162 µM) is 0.228; in the assay with Gemcitabine + Crizotinib (first compound 0.01 µM), 0.188; with Gemcitabine + Crizotinib (first compound 0.03162 µM), 0.166; with Gemcitabine + Crizotinib (first compound 0.1 µM) it was 0.135; in the assay with Gemcitabine + Linsitinib (first compound 0.001 µM) it was 0.653; in the assay with Gemcitabine + Linsitinib (first compound 0.003162 µM), 0.327. In addition, the relative viability was 0.186 in the assay with Gemcitabine + Linsitinib (first compound 0.01 µM); 0.23 with Gemcitabine + Linsitinib (first compound 0.03162 µM); 0.157 with Gemcitabine + Linsitinib (first compound 0.1 µM); 0.086 with Gemcitabine + Tozasertib (first compound 0.001 µM); 0.081 in the assay with Gemcitabine + Tozasertib (first compound 0.003162 µM); 0.0836 with Gemcitabine + Tozasertib (first compound 0.01 µM). Besides, the relative viability with Gemcitabine + Tozasertib (first compound 0.03162 µM) stood at 0.081; in the assay with Gemcitabine + Tozasertib (first compound 0.1 µM), 0.0743.

Take NCI-H1915: the relative viability in the assay with Gemcitabine + OSI-027 (first compound 0.001 µM) was 0.714; with Gemcitabine + OSI-027 (first compound 0.003162 µM) it was 0.63; with Gemcitabine + OSI-027 (first compound 0.01 µM) it was 0.545; with Gemcitabine + OSI-027 (first compound 0.03162 µM), 0.479; with Gemcitabine + OSI-027 (first compound 0.1 µM), 0.241; with Gemcitabine + Crizotinib (first compound 0.001 µM), 0.967. The relative viability came to 0.87 in the assay with Gemcitabine + Crizotinib (first compound 0.003162 µM); 0.881 with Gemcitabine + Crizotinib (first compound 0.01 µM); 0.426 with Gemcitabine + Crizotinib (first compound 0.03162 µM); 0.247 with Gemcitabine + Crizotinib (first compound 0.1 µM); 1.12 in the assay with Gemcitabine + Linsitinib (first compound 0.001 µM); 1.09 in the assay with Gemcitabine + Linsitinib (first compound 0.003162 µM). Further, the relative viability was determined as 1.11 with Gemcitabine + Linsitinib (first compound 0.01 µM); 0.92 with Gemcitabine + Linsitinib (first compound 0.03162 µM); 0.442 with Gemcitabine + Linsitinib (first compound 0.1 µM); 0.461 with Gemcitabine + Tozasertib (first compound 0.001 µM); 0.462 with Gemcitabine + Tozasertib (first compound 0.003162 µM); 0.397 in the assay with Gemcitabine + Tozasertib (first compound 0.01 µM). Further, the figures for the relative viability with Gemcitabine + Tozasertib (first compound 0.03162 µM) and with Gemcitabine + Tozasertib (first compound 0.1 µM) were 0.317 and 0.193, respectively.

For the cell line RERF-LC-KJ, the relative viability in the assay with Gemcitabine + OSI-027 (first compound 0.001 µM) came to 0.62; with Gemcitabine + OSI-027 (first compound 0.003162 µM), 0.508; in the assay with Gemcitabine + OSI-027 (first compound 0.01 µM) it was 0.418; with Gemcitabine + OSI-027 (first compound 0.03162 µM), 0.261; with Gemcitabine + OSI-027 (first compound 0.1 µM) it was 0.225; with Gemcitabine + Crizotinib (first compound 0.001 µM), 0.901. The relative viability with Gemcitabine + Crizotinib (first compound 0.003162 µM) was 0.866; with Gemcitabine + Crizotinib (first compound 0.01 µM), 0.844; in the assay with Gemcitabine + Crizotinib (first compound 0.03162 µM) it was 0.73; with Gemcitabine + Crizotinib (first compound 0.1 µM) it was 0.252; with Gemcitabine + Linsitinib (first compound 0.001 µM), 0.856; with Gemcitabine + Linsitinib (first compound 0.003162 µM), 0.939. For the same cell line, the relative viability with Gemcitabine + Linsitinib (first compound 0.01 µM) was determined as 0.821; with Gemcitabine + Linsitinib (first compound 0.03162 µM), 0.739; with Gemcitabine + Linsitinib (first compound 0.1 µM), 0.296; in the assay with Gemcitabine + Tozasertib (first compound 0.001 µM), 0.596; with Gemcitabine + Tozasertib (first compound 0.003162 µM), 0.543; in the assay with Gemcitabine + Tozasertib (first compound 0.01 µM) it was 0.578. Also, the relative viability was 0.323 with Gemcitabine + Tozasertib (first compound 0.03162 µM) and 0.229 in the assay with Gemcitabine + Tozasertib (first compound 0.1 µM).
